Measured values from paper PMC13252604, “First Generation Proteolysis Targeting Chimeras (PROTACs) for the Treatment of Progeria” (Advanced Science, 2026).

Assays:
[1] = Stability in cell culture; assay type: in vitro ADME
Source text: TABLE 1 Pharmacokinetic parameters of PROTAC 2. | column: Stability (hours) ^b / Cell culture

[2] = tested on: Lmna^G609G/G609G fibroblasts; assay: Immunocytofluorescence (Ki‐67, lamin A/C) in mouse progeroid cells; assay type: cell-based; conditions: 5 µM
Protocol: (§1) Confocal fluorescence microscopy images are representative of 2 independent experiments. […] Representative cropped immunoblots are shown. […] MW, molecular weight (in kDa) markers. (C) PROTAC 2 decreases senescence‐associated β‐galactosidase (SA‐βgal) activity, interleukin (IL) 1α and p16 senescent markers. Lmna^G609G/G609G (G609G) or Lmna^+/+ (WT) fibroblasts were incubated with vehicle or compound 2 (5 µM). […] Data were analysed using one‐way ANOVA followed by Dunnett's post–hoc test. ^*, p < 0.05; ^**, p < 0.01, ^***, p < 0.001, ^****, p < 0.0001 vs G609G cells. […]
compound exposure. […]
TBS-T and proteins were visualized by quimioluminiscence (GE Healthcare […]
For immunocytofluorescence studies, mouse or human progeroid cells previously incubated with compound of interest or DMSO were seeded at a density of […] or 1.5 x 10^4 cells/well over 12 mm diameter slide covers respectively in a 12-well plate and were incubated for 24 h at 37 ᵒC with compound of interest. Cells were fixed with 4% formaldehyde (Ki67, pH2AX) or cold methanol (Lamin A/C, H3K9Me3) from Sigma-Aldrich during 20 min and permeabilized with PBS containing 0.2% Triton X-100 (PBS-T, Sigma-Aldrich). Then, cells were blocked with TBS 2% BSA during 30 min at rt, followed by incubation o.n. with anti-lamin A/C (Santa Cruz Biotechnology, SC-376248, […]
at 4 °C. After that, cells were washed with TBS (1x) and incubated in absence of light for 1 h with fluorescent goat anti-mouse (1:500, Alexa Fluor 488, Life Technologies) diluted in TBS with 2% BSA. Finally, cells were washed with TBS (2x) and the slide cover was carefully mounted with Immumount (Thermo Scientific). The visualization was carried out using confocal microscopy (Olympus IX83) equipped with a 40X oil immersion lens and the appropriate excitation and emission filters at the microscopy UCM facilities. […]
7. Senescence-associated (SA) β-galactosidase activity. […]

[3] = tested on: Lmna^G609G/G609G fibroblasts; assay: RT-qPCR of senescence markers in mouse progeroid cells; assay type: cell-based; conditions: 5 µM
Protocol: as §1
(§2) ferrocyanide, 0.6 mL 5 M NaCl, 0.2 mL 0.2 M MgCl2, (all from Sigma Aldrich) and 6.2 mL of deionized water in a total volume of 20 mL] in the dark in a humidified incubator at 37 °C for 24 h without CO2 supply. Then, an equal volume of the supernatant of each well was transferred to a new 96-well plate for fluorescence measurement. The resultant production of fluorescein was measured using a FluoStar Optima instrument (BMG Labtech) with an excitation of 485 nm and emission at 535 nm. […]
Total RNA was extracted by RNAeasy Mini Kit (Qiagen) according to the manufacturer instructions and subsequently quantified using the NanoPhotometer N60 (Implen). […] Quantitative real-time PCR was run in the QuantStudio 7FLEX (Applied Biosystems) system and results were normalized according to β-actin quantification. […]

[4] = tested on: HGADFN167 Lmna^G608G/G608G fibroblasts; assay: RT-qPCR of senescence markers in human progeroid cells; assay type: cell-based; conditions: HGADFN167, 5 µM, 20 days
Source text: FIGURE 6 (A) Representative cropped immunoblots and progerin quantification in human Lmna^G608G/G608G fibroblasts. MW, molecular weight (in kDa) markers. […] (B) PROTAC 2 increases cell proliferation (upper panels) and decreases the number of misshapen nuclei (lower panels). White arrows highlight selected misshapen nuclei. (C) PROTAC 2 decreases senescence‐associated β‐galactosidase (SA‐βgal) activity, interleukin (IL) 6, p16 and p21 senescent markers. Bar graphs show mean±sem of 2 (SA‐βgal and p21) or 3 (IL‐6 and p16) independent experiments performed in triplicate. (D) PROTAC 2 decreases phosphorylated histone 2AX (pH2AX) and increases trimethylated histone 3 (H3K9Me3) levels. (E) PROTAC 2 increases the oxygen consumption rate (OCR), ATP production and the number of healthy mitochondria in human progeroid cells. Bar graphs show mean±sem of 2 independent experiments performed in duplicate. […] Data were analysed using one‐way ANOVA followed by Dunnett's post–hoc test vs vehicle (panel A) or vs G608G cells (panels B‐E). ^*, p < 0.05; ^**, p < 0.01; ^***, p < 0.001; ^****, p < 0.0001. […]
as §2
Total RNA was extracted by RNAeasy Mini Kit (Qiagen) according to the manufacturer instructions and subsequently quantified using the NanoPhotometer N60 (Implen). […] Quantitative real-time PCR was run in the QuantStudio 7FLEX (Applied Biosystems) system and results were normalized according to β-actin quantification.
Specific `in-house´ designed primers (see sequence below) were purchased from Metabion. The threshold cycle (Ct) was determined, and the relative gene expression was […]

Structure (SMILES): CC1(C)Oc2cc3oc(=O)ccc3cc2C[C@@H]1OC(=O)CCCCCNc1cccc2c1C(=O)N(C1CCC(=O)NC1=O)C2=O (stereo partly drawn) [compound 2]
- Stability (hours) Cell culture [1]: >24 h
- cell proliferation (Ki‐67) [2]: significantly increases cell proliferation
- nuclear cell membrane thickness [2]: decreases nuclear cell membrane thickness
- progerin accumulation in the nuclear membrane [2]: decreases progerin accumulation in the nuclear membrane
- interleukin (IL) 1α senescent marker [3]: significantly reduced
- p16 senescent marker [3]: significantly reduced
- IL‐6 senescent marker [4]: significantly reduced
- p16 senescent marker [4]: significantly reduced
- p21 senescent marker [4]: significantly reduced
